Measurements: publication PMC6018617, “Probing GABAA receptors with inhibitory neurosteroids” (Neuropharmacology, 2018)

Tests used:
[1] = target: T1, α3β2γ2L (Mus musculus, UniProt P22723+P26049+P63137); assay: whole-cell patch clamp, HEK cells, Hill fit; type: cell-based
T1 construct: gene Gabra3; full-length subunits in pRK5, co-expressed in HEK cells; heteropentamer; with Gamma-aminobutyric acid receptor subunit gamma-2
Source text: whole-cell patch clamp, HEK cells, Hill fit on α3β2γ2L

[2] = target: T2, α6β2δ (Mus musculus, UniProt P16305+P22933+P63137); assay: whole-cell patch clamp, HEK cells, Hill fit; type: cell-based
T2 construct: gene Gabra6; full-length subunits in pRK5, co-expressed in HEK cells; heteropentamer; with Gamma-aminobutyric acid receptor subunit delta
T2 sequence (P16305 20-453): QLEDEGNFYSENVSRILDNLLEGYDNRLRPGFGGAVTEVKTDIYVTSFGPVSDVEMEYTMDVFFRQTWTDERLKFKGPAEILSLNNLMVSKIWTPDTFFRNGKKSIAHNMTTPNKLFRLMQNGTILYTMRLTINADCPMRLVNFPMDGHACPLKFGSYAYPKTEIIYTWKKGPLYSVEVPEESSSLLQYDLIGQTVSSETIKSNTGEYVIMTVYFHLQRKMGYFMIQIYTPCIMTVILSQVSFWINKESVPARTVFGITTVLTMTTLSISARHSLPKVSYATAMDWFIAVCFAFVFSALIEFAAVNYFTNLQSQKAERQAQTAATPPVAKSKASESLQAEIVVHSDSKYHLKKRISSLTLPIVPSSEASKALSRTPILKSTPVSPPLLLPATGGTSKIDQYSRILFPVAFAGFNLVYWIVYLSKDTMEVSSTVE
T2 sequence (P63137 26-512): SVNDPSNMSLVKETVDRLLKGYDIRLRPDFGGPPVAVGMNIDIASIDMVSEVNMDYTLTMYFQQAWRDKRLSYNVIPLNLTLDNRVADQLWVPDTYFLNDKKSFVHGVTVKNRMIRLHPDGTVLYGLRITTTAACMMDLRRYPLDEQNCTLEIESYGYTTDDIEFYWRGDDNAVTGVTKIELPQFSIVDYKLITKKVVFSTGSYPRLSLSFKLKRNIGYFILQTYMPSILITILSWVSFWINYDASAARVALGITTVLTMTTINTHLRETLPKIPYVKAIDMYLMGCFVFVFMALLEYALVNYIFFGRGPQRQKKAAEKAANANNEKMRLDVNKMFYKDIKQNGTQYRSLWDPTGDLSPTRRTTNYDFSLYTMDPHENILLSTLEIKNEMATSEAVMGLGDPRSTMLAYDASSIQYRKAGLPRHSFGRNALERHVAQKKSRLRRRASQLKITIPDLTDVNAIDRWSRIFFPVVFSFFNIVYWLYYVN
T2 sequence (P22933 25-449): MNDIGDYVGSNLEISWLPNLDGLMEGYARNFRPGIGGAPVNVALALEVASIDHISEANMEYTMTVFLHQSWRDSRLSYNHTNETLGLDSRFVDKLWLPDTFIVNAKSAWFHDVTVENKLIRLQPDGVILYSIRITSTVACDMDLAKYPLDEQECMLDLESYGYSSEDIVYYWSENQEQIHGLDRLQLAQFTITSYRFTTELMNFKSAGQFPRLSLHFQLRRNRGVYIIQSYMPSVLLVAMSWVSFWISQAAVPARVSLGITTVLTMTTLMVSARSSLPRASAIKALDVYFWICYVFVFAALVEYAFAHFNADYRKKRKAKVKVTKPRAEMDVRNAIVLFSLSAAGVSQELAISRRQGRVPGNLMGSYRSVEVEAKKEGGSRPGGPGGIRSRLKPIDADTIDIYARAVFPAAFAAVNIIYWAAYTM
Source text: whole-cell patch clamp, HEK cells, Hill fit on α6β2δ

[3] = target: T3, β3 homomer (Mus musculus, UniProt P63080); assay: whole-cell patch clamp, HEK cells; type: cell-based; details: 100 μM PS co-applied with 500 μM pentobarbitone
T3 construct: gene Gabrb3; full-length subunit in pRK5, HEK cells; homopentamer
T3 sequence (P63080 26-473): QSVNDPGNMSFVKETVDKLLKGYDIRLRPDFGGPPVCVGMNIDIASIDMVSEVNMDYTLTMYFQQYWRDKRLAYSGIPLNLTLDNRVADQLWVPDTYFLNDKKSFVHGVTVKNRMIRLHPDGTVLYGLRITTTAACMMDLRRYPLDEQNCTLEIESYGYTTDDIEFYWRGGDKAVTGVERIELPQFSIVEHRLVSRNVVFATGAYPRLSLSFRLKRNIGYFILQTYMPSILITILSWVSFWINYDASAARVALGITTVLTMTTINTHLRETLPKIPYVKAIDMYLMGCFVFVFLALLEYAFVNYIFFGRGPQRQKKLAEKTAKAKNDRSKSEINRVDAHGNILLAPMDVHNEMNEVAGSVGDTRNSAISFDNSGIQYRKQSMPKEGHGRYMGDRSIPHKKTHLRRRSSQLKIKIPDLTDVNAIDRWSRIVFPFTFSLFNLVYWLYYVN

[4] = target: T4, α1β2γ2L (Mus musculus, UniProt P22723+P62812+P63137, P62812:V283S); assay: whole-cell patch clamp, HEK cells; type: cell-based
T4 construct: gene Gabra1; full-length subunits in pRK5, co-expressed 1:1:1 in HEK cells; heteropentamer; with Gamma-aminobutyric acid receptor subunit gamma-2
T4 sequence (P62812 28-455 V283S): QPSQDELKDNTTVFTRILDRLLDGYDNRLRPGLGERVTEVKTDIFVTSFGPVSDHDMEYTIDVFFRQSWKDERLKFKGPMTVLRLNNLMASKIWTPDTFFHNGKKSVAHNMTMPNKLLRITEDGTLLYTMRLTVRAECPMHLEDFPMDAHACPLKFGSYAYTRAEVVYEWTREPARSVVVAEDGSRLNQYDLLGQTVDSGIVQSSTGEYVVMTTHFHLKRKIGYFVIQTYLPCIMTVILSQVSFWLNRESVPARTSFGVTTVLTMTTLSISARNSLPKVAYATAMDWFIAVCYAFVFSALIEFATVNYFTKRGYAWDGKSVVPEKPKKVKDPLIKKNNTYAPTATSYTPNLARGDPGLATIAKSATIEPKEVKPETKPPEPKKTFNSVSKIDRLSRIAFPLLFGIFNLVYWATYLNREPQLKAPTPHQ
T4 sequence (P63137 26-512): as the sequence (P63137 26-512) above
T4 sequence (P22723 39-474): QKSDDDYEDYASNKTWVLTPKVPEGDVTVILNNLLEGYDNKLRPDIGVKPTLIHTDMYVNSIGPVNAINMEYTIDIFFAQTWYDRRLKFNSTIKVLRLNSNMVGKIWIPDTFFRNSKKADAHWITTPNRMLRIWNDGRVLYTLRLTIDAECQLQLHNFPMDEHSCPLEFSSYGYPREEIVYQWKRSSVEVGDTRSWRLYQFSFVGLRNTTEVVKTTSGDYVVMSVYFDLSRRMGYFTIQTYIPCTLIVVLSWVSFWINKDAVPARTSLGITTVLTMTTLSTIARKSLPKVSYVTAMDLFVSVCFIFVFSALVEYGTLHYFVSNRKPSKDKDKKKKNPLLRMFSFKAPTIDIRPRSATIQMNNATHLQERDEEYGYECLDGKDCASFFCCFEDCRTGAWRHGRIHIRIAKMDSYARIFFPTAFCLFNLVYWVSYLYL

[5] = tested on: T5, ρ1-260-γ2S; assay: whole-cell patch clamp, HEK cells; type: cell-based, Homo sapiens; Mus musculus; details: co-applied with GABA EC80 (200 μM)
T5 construct: gene GABRR1; single-chain fusion: human rho1 ECD to residue 260, mouse gamma2S TMD; homopentamer in HEK cells

[6] = target: T2, α6β2δ; assay: whole-cell patch clamp, HEK cells; type: cell-based; details: read-out: PS IC50
Source text: whole-cell patch clamp, HEK cells on α6β2δ

[7] = target: T6, ρ1 (Homo sapiens, UniProt P24046); assay: whole-cell patch clamp, HEK cells; type: cell-based; details: read-out: PS IC50
T6 construct: gene GABRR1; full-length subunit in pRK5, HEK cells; homopentamer
Source text: whole-cell patch clamp, HEK cells on ρ1

[8] = target: T7, α1β3γ2L (Mus musculus, UniProt P22723+P62812+P63080); assay: whole-cell patch clamp, HEK cells; type: cell-based; details: read-out: PS IC50
T7 construct: gene Gabra1; full-length subunits in pRK5, co-expressed in HEK cells; heteropentamer; with Gamma-aminobutyric acid receptor subunit gamma-2
Source text: whole-cell patch clamp, HEK cells on α1β3γ2L

[9] = target: T8, α2β2γ2L (Mus musculus, UniProt P22723+P26048+P63137); assay: whole-cell patch clamp, HEK cells; type: cell-based; details: read-out: PS IC50
T8 construct: gene Gabra2; full-length subunits in pRK5, co-expressed in HEK cells; heteropentamer; with Gamma-aminobutyric acid receptor subunit gamma-2
T8 sequence (P26048 29-451): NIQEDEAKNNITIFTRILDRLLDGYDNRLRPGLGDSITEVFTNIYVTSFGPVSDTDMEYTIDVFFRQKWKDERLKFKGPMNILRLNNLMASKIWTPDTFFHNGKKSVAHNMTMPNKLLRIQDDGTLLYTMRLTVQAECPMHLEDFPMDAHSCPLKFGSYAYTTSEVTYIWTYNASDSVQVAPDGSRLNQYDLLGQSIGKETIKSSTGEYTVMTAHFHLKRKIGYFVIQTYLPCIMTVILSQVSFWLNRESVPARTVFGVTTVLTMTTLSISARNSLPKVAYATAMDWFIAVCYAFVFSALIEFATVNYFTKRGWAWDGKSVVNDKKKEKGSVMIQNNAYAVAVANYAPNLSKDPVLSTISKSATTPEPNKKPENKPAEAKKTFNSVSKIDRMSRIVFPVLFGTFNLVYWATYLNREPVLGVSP
T8 sequence (P63137 26-512): as the sequence (P63137 26-512) above
T8 sequence (P22723 39-474): as the sequence (P22723 39-474) above
Source text: whole-cell patch clamp, HEK cells on α2β2γ2L

[10] = target: T1, α3β2γ2L; assay: whole-cell patch clamp, HEK cells; type: cell-based; details: read-out: PS IC50
Source text: whole-cell patch clamp, HEK cells on α3β2γ2L

[11] = target: T9, α1β2 (Mus musculus, UniProt P62812+P63137); assay: whole-cell patch clamp, HEK cells; type: cell-based; details: read-out: PS IC50
T9 construct: gene Gabra1; full-length subunits in pRK5, co-expressed in HEK cells; heteropentamer without gamma
Source text: whole-cell patch clamp, HEK cells on α1β2

[12] = target: T10, α5β2γ2L (Mus musculus, UniProt P22723+P63137+Q8BHJ7); assay: whole-cell patch clamp, HEK cells; type: cell-based; details: read-out: PS IC50
T10 construct: gene Gabra5; full-length subunits in pRK5, co-expressed in HEK cells; heteropentamer; with Gamma-aminobutyric acid receptor subunit gamma-2
Source text: whole-cell patch clamp, HEK cells on α5β2γ2L

[13] = target: T11, α4β2δ (Mus musculus, UniProt P22933+P63137+Q9D6F4); assay: whole-cell patch clamp, HEK cells; type: cell-based; details: read-out: PS IC50
T11 construct: gene Gabra4; full-length subunits in pRK5, co-expressed in HEK cells; heteropentamer; with Gamma-aminobutyric acid receptor subunit delta
T11 sequence (Q9D6F4 36-552): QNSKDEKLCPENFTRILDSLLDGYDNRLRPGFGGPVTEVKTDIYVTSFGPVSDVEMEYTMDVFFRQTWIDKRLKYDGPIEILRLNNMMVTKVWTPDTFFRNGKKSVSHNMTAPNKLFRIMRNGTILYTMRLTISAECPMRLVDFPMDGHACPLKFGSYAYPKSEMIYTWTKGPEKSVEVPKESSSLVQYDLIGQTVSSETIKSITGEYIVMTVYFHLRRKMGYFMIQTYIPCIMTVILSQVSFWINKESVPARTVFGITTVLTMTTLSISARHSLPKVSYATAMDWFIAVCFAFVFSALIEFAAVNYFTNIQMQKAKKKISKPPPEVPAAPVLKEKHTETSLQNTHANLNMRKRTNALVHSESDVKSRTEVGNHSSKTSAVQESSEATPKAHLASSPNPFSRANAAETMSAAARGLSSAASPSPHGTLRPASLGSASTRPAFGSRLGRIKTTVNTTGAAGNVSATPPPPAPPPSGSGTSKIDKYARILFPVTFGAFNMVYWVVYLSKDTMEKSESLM
T11 sequence (P63137 26-512): as the sequence (P63137 26-512) above
T11 sequence (P22933 25-449): as the sequence (P22933 25-449) above
Source text: whole-cell patch clamp, HEK cells on α4β2δ

[14] = target: T12, α1β2γ2L (Mus musculus, UniProt P22723+P62812+P63137); assay: whole-cell patch clamp, HEK cells; type: cell-based; details: read-out: PS IC50
T12 construct: gene Gabra1; full-length subunits in pRK5, co-expressed 1:1:1 in HEK cells; heteropentamer; with Gamma-aminobutyric acid receptor subunit gamma-2
T12 sequence (P62812 28-455): as the sequence (P62812 28-455 V283S) above, with S256V counted along it
T12 sequence (P63137 26-512): as the sequence (P63137 26-512) above
T12 sequence (P22723 39-474): as the sequence (P22723 39-474) above
Source text: whole-cell patch clamp, HEK cells on α1β2γ2L

[15] = target: T13, ρ1 (Homo sapiens, UniProt P24046, P315V); assay: whole-cell patch clamp, HEK cells; type: cell-based
T13 construct: gene GABRR1; full-length subunit in pRK5, HEK cells; homopentamer
T13 sequence (P24046 22-479 P315V): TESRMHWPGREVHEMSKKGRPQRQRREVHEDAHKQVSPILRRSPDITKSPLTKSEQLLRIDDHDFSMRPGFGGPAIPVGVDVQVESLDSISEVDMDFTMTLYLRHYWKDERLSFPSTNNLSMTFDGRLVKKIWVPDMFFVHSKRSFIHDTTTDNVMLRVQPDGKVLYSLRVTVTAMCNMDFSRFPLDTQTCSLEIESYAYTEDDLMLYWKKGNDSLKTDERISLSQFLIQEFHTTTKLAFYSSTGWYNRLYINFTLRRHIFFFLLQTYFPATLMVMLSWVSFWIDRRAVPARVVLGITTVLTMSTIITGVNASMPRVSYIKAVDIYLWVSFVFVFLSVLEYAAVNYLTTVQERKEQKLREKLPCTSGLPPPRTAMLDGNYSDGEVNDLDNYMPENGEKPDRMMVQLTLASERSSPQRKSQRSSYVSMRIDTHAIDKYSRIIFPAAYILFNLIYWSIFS

[16] = tested on: T14, ρ1-260-α1; assay: whole-cell patch clamp, HEK cells; type: cell-based, Homo sapiens; Mus musculus; details: steady-state current, co-applied with GABA EC80 (30 μM), pH 7.4, room temperature
T14 construct: gene GABRR1; single-chain fusion: human rho1 ECD to residue 260 (start of M1), mouse alpha1 TMD with linkers; homopentamer in HEK cells

[17] = target: T12, α1β2γ2L; assay: whole-cell patch clamp, HEK cells; type: cell-based; details: GABA EC100 (1 mM), PTX pre-applied then co-applied; text calls it picrotoxin, reagent list picrotoxinin

T1 sequence (P26049 29-492): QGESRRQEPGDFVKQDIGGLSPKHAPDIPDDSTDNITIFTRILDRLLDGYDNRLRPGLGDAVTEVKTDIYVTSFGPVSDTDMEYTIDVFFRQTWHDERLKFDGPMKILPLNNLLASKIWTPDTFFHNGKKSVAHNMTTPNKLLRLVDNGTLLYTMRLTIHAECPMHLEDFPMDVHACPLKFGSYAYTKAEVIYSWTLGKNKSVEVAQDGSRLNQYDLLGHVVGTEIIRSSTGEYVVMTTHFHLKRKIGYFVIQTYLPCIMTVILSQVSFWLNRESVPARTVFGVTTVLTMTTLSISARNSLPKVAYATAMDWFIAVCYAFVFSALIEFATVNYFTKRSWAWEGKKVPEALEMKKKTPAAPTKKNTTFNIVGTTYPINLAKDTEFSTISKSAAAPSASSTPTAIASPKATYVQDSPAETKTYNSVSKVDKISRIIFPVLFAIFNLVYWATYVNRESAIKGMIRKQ
T1 sequence (P63137 26-512): as the sequence (P63137 26-512) above
T1 sequence (P22723 39-474): as the sequence (P22723 39-474) above

With `NCCCC(=O)O` [GABA] the EC50 [1] was 64600 ± 14300 nM and the EC50 [2] was 200 ± 20 nM.
In the case of `CC(=O)[C@H]1CC[C@H]2[C@@H]3CC=C4C[C@@H](OS(=O)(=O)O)CC[C@]4(C)[C@H]3CC[C@]12C` [pregnenolone sulphate], the “whole-cell patch clamp, HEK cells” value [3] is reported as “neurosteroid caused a concentration-dependent block of the PB-induced peak current”, the IC50 [4] is reported as 35500 ± 8200 nM and the “% of control peak current at 100 μM PS” value [5] is reported as 39.2 ± 5.1%. For the same compound, the IC50 [6] was 1300 ± 100 nM, the IC50 [7] was over 300000 nM and the IC50 [8] was 1000 ± 80 nM. For the same compound, the IC50 [9] was 400 ± 50 nM, the IC50 [10] was 600 ± 50 nM and the IC50 [11] was 1300 ± 70 nM. It also gave an IC50 [12] of 700 ± 100 nM, an IC50 [13] of 1300 ± 100 nM and an IC50 [14] of 400 ± 50 nM. For the same compound, the IC50 [15] was 6000 ± 600 nM and the IC50 [16] was 7900 ± 1700 nM.
picrotoxinin was tested, and the “% of control peak current at 10 μM PTX” value [17] was 37.3 ± 8.1%.
